Results as given in publication PMC5045383 (Oncotarget, 2016).

How the values were obtained:
[1] = system: MOLM-14 xenograft tumor; test: MOLM-14 xenograft tumor model; format: in vivo, Balb/c-nu mice; conditions: daily oral gavage, MOLM14 xenograft
Excerpt: Five weeks old female Balb/c-nu mice were purchased from the Shanghai Experimental Center, Chinese Science Academy (Shanghai, China). All animals were housed in a specific pathogen-free facility and used according to the animal care regulations of Hefei Institutes of Physical Science Chinese Academy of Sciences. Prior to implantation, cells were harvested during exponential growth. 10 million MOLM-14 cells in 1640 were formulated as a 1:1 mixture with Matrigel (BD Biosciences) and injected into the subcutaneous space on the right flank of Balb/c-nu mice. Daily oral administration was initiated when MOLM-14 tumors had reached a size of 200 to 400 mm^3. Animals were then randomized into treatment groups of 10 mice each for efficacy studies. […] Tumor growth was measured daily after A674563 treatment. Tumor volumes were calculated as follows: tumor volume (mm^3) = [(W^2 × L)/2] in which width (W) is defined as the smaller of the two measurements and length (L) is defined as the larger of the two measurements.

[2] = system: BaF3; test: Anti-proliferation, parental BaF3 cells; format: cell-based
Procedure: (§1) Cells were grown in 96-well culture plates (3000/well). […] Cell proliferation was determined after 72 hours drug treatment. […] Cell viability was measured with the CellTiter–Glo assay (Promega, USA), according to the manufacturer's instructions, and luminescence was measured in a multi-label reader (Envision, PerkinElmer, USA). Data were normalized to control groups (DMSO) and represented by the mean of three independent measurements with standard error < 20%. GI50 values were calculated using Prism 5.0 (GraphPad Software, San Diego, CA).
Retroviral constructs for BaF3-FLT3 mutants were made based on the pMSCVpuro (Clontech) backbone. For TEL-FLT3 vector, the first 1 kb of human TEL gene with an artificial myristoylation sequence ([…]) was cloned into pMSCVpuro retroviral vector, followed by a 3xFLAG tag sequence and a stop codon. Then the kinase domain coding sequence of FLT3 was inserted in-frame between TEL and 3× FLAG sequences. For full-length expression vectors, the coding sequences of FLT3 variants were directly cloned in pMSCVpuro vector with a 3X FLAG tag at the C-terminal end. All mutagenesis studies were performed using the QuikChange Site-Directed Mutagenesis Kit (Stratagene) following the manufacturer's instructions. […]

[3] = system: MV4-11 (FLT3-ITD); test: Cell proliferation assay (CellTiter-Glo); format: cell-based, human
Procedure: (§2) The human AML cell lines MV4-11, U937, OCI-AML-3 were purchased from the American Type Culture Collection (ATCC) (Manassas, VA, USA). The FLT3-ITD-expressing lines, MOLM-13, MOLM-14, were provided by Dr. Scott Armstrong, Dana Farber Cancer Institute (DFCI), Boston, MA. The wt FLT3-expressing AML line, NB4 (KRAS A18D), was obtained from Dr. Gary Gilliland. […] MV4-11 was cultured in IDMEM media (Corning, USA) with 10% FBS and supplemented with 2% L-glutamine and 1% penicillin/streptomycin. OCI-AML-3 was cultured in α-MEM media (Corning, USA) with 10% FBS and supplemented with 2% L-glutamine and 1% penicillin/streptomycin. All cell lines were maintained in culture media at 37°C with 5% CO2.
as §1, with “Data were normalized to control groups (DMSO) and represented by the mean of three independent measurements with standard error < 20%.” left out

[4] = system: MOLM-13 (FLT3-ITD/wt); test: Cell proliferation assay (CellTiter-Glo); format: cell-based, human
Procedure: as §2
as §1, with “Data were normalized to control groups (DMSO) and represented by the mean of three independent measurements with standard error < 20%.” left out

[5] = system: OCI-AML-3 (FLT3-wt); test: Cell proliferation assay (CellTiter-Glo); format: cell-based, human; conditions: 72 hours
Procedure: as §2
as §1, with “Data were normalized to control groups (DMSO) and represented by the mean of three independent measurements with standard error < 20%.” left out

[6] = system: U937 (FLT3-wt); test: Cell proliferation assay (CellTiter-Glo); format: cell-based, human; conditions: 72 hours
Procedure: as §2
as §1, with “Data were normalized to control groups (DMSO) and represented by the mean of three independent measurements with standard error < 20%.” left out

[7] = system: MOLM-14 (FLT3-ITD/wt); test: Cell proliferation assay (CellTiter-Glo); format: cell-based, human
Procedure: as §2
as §1, with “Data were normalized to control groups (DMSO) and represented by the mean of three independent measurements with standard error < 20%.” left out

[8] = system: NB4 (FLT3-wt); test: Cell proliferation assay (CellTiter-Glo); format: cell-based, human; conditions: 72 hours
Procedure: as §2
as §1, with “Data were normalized to control groups (DMSO) and represented by the mean of three independent measurements with standard error < 20%.” left out

[9] = biological target: FLT3-ITD kinase; design: method as in PMID 22037378; conditions: cited from earlier work
[10] = system: MOLM14; test: Cell cycle analysis (PI, flow cytometry); format: cell-based, human; conditions: 24 hours
Procedure: (§3) The cells were fixed in 70% cold ethanol and incubated at −20°C overnight, then stained with PI/RNase staining buffer (BD Pharmingen). Flow cytometry was performed using a FACS Calibur (BD), and results were analyzed by ModFit software.

[11] = system: MV4-11; test: Cell cycle analysis (PI, flow cytometry); format: cell-based, human; conditions: 24 hours
Procedure: as §3

[12] = system: HL-60 (FLT3-wt); test: Cell proliferation assay (CellTiter-Glo); format: cell-based, human; conditions: 72 hours
Procedure: as §1, with “Data were normalized to control groups (DMSO) and represented by the mean of three independent measurements with standard error < 20%.” left out

[13] = system: SKM-1 (FLT3-wt); test: Cell proliferation assay (CellTiter-Glo); format: cell-based, human; conditions: 72 hours
Procedure: as §1, with “Data were normalized to control groups (DMSO) and represented by the mean of three independent measurements with standard error < 20%.” left out

GI50 ([3]; MV4-11 (FLT3-ITD), 72 hours, Table 1): 75 nM
GI50 ([3]; MV4-11+FL(10 ng/mL)): 78 nM
GI50 ([3]; MV4-11, no FLT3 ligand, Table 3): 75 nM
GI50 ([4]; MOLM-13 (FLT3-ITD/wt), 72 hours, Table 1): 60 nM
GI50 ([4]; MOLM-13+FL(1 ng/mL)): 61 nM
GI50 ([4]; MOLM-13+FL(5 ng/mL)): 58 nM
GI50 ([4]; MOLM-13+FL(10 ng/mL)): 59 nM
GI50 ([4]; MOLM-13, no FLT3 ligand, Table 3): 60 nM
GI50 [5]: 670 nM
GI50 [6]: 520 nM
GI50 ([7]; MOLM-14 (FLT3-ITD/wt), 72 hours, Table 1): 180 nM
GI50 ([7]; MOLM-14+FL(1 ng/mL)): 210 nM
GI50 ([7]; MOLM-14+FL(5 ng/mL)): 190 nM
GI50 ([7]; MOLM-14+FL(10 ng/mL)): 180 nM
GI50 ([7]; MOLM-14, no FLT3 ligand, Table 3): 180 nM
GI50 [12]: 2600 nM
GI50 [13]: 2000 nM
Structure (SMILES): Cc1[nH]nc2ccc(-c3cncc(OC[C@@H](N)Cc4ccccc4)c3)cc12 [A674563]
tumor growth inhibition (TGI) ([1]; 25 mg/kg/d): 45%
tumor growth inhibition (TGI) ([1]; 50 mg/kg/day): 78%
GI50 [2]: 1600 nM
GI50 [8]: 480 nM
Kd [9]: 83 nM
%G0–G1 ([10]; MOLM14, 0.3 μM): 47.08%
%G2–M ([10]; MOLM14, 0.3 μM): 11.27%
%S ([10]; MOLM14, 0.3 μM): 41.65%
%G0–G1 ([10]; MOLM14, 3 μM): 53.87%
%G2–M ([10]; MOLM14, 3 μM): 22.65%
%S ([10]; MOLM14, 3 μM): 23.49%
%G0–G1 ([11]; MV4-11, 0.3 μM): 68.69%
%G2–M ([11]; MV4-11, 0.3 μM): 2.61%
%S ([11]; MV4-11, 0.3 μM): 28.7%
%G0–G1 ([11]; MV4-11, 3 μM): 68.62%
%G2–M ([11]; MV4-11, 3 μM): 8.56%
%S ([11]; MV4-11, 3 μM): 22.82%
